Measurements taken from US20250074901A1, “NOVEL HETEROARYL COMPOUNDS” (ICAGEN, LLC, priority 2021, published 2025).

Molecular target: T1, Kv7.2 (Homo sapiens, UniProt O43526)
T1 construct: expressed in transfected cells
Assay: Activation of Kv7.2 (in vitro assay, concentration response curve)
Format: cell-based
Settings: for Emax: Kv7.2 activation max %; for EC50: activation of Kv7.2
Description: The term “EC50” in this application is defined as: the agonistic effect of a compound can be determined by testing the compound in an in vitro assay as described herein, whereby the effect of the compound is measured across a range of compound concentrations. The resulting data is plotted as a concentration response curve, which typically follows a sigmoidal function, whereby the concentration of the compound is plotted on the x axis and the response (agonistic effect) is plotted on the y axis. The term “EC50” is the “half maximal effective concentration” and denotes the concentration of a particular compound required to obtain 50% of the maximum response (Emax) which is observed for that compound in the given in vitro assay.

| Emax [%] | EC50 [nM] | SMILES |
| --- | --- | --- |
| 58 | 260 | CC(F)COc1cc(CNC(=O)N[C@H]2C[C@H](C(F)(F)F)C2)ccn1 (stereo partly shown) [Example 183, 1-[[2-(2-fluoropropoxy)pyridin-4-yl]methyl]-3-[(1r,3r)-3-(trifluoromethyl)cyclobutyl]urea] |
| 48 | 1030 | O=C(NCc1ccnc(OC(F)F)c1)NC12CCC(F)(CC1)CC2O (stereo not shown) [Example 82, 1-[[2-(difluoromethoxy)pyridin-4-yl]methyl]-3-(4-fluoro-2-hydroxy-1-bicyclo[2.2.2]octanyl)urea] |
| 40 | 70 | Cc1cc(NC(=O)NCc2ccnc(OC(F)F)c2)ccc1F [Example 261, 1-[[2-(difluoromethoxy)pyridin-4-yl]methyl]-3-(4-fluoro-3-methylphenyl)urea] |
| 93 | 610 | O=C(NCc1ccnc(OCC(F)(F)F)c1)N[C@H]1C[C@H](C(F)F)C1 [Example 293, 1-[(1r,3r)-3-(difluoromethyl)cyclobutyl]-3-[[2-(2,2,2-trifluoroethoxy)pyridin-4-yl]methyl]urea] |
| 68 | 450 | O=C(NCc1ccnc(OC(F)F)c1)NCC1(C(F)F)CCC1 [Example 191, 1-[[2-(difluoromethoxy)pyridin-4-yl]methyl]-3-[[1-(difluoromethyl)cyclobutyl]methyl]urea] |
| 68 | 1110 | O=C(NCc1ccnc(OC(F)F)c1)N[C@@H](C1CC1)C(F)(F)F [Example 135, 1-[(1S)-1-cyclopropyl-2,2,2-trifluoroethyl]-3-[[2-(difluoromethoxy)pyridin-4-yl]methyl]urea] |
| 76 | 20 | CC(NC(=O)NCc1ccnc(OC(F)F)c1)C1CC2CCC1C2 (stereo not shown) [Example 24, 1-[1-(2-bicyclo[2.2.1]heptanyl)ethyl]-3-[[2-(difluoromethoxy)pyridin-4-yl]methyl]urea] |
| 51 | 290 | O=C(NCc1ccnc(OC(F)F)c1)N[C@H]1C[C@@H]2CC(F)(F)C[C@@H]2C1 [Example 195, 1-[[2-(difluoromethoxy)pyridin-4-yl]methyl]-3-[(2r,3aR,6aS)-5,5-difluoro-2,3,3a,4,6,6a-hexahydro-1H-pentalen-2-yl]urea] |
| 78 | 1720 | O=C(NCc1ccnc(OCF)c1)Nc1cccc(Cl)c1 [Example 164, 1-(3-chlorophenyl)-3-[[2-(fluoromethoxy)pyridin-4-yl]methyl]urea] |
| 66 | 3330 | O=C(NCc1ccnc(OC(F)F)c1)NC1COC(C2CC2)C1 (stereo not shown) [Example 166, 1-(5-cyclopropyloxolan-3-yl)-3-[[2-(difluoromethoxy)pyridin-4-yl]methyl]urea] |
| 51 | 2080 | O=C(NCc1ccnc(OC(F)F)c1)NC1CC(F)(F)C1 [Example 108, 1-(3,3-difluorocyclobutyl)-3-[[2-(difluoromethoxy)pyridin-4-yl]methyl]urea] |
| 75 | 30 | CC1CCCC(C)C1NC(=O)NCc1ccnc(OC(F)F)c1 (stereo not shown) [Example 25, 1-[[2-(difluoromethoxy)pyridin-4-yl]methyl]-3-(2,6-dimethylcyclohexyl)urea] |
| 63 | 2780 | O=C(NCc1ccnc(OC(F)F)c1)N[C@H]1[C@@H](O)[C@H]2CCC[C@H]21 (racemic) [Example 111, 1-[[2-(difluoromethoxy)pyridin-4-yl]methyl]-3-[rac-(1R,5S,6S,7R)-7-hydroxy-6-bicyclo[3.2.0]heptanyl]urea] |
| 87 | 460 | O=C(NCc1ccnc(OC(F)F)c1)N[C@@H]1C[C@H]2C[C@@H]1C(F)(F)C2 (racemic) [Example 236, 1-[[2-(difluoromethoxy)pyridin-4-yl]methyl]-3-[rac-(1R,2S,4S)-6,6-difluoro-2-bicyclo[2.2.1]heptanyl]urea] |
| 48 | 810 | O=C(NCc1ccnc(OC(F)F)c1)Nc1cncc(Cl)n1 [Example 98, 1-(6-chloropyrazin-2-yl)-3-[[2-(difluoromethoxy)pyridin-4-yl]methyl]urea] |
| 62 | 750 | [2H]C([2H])(NC(=O)NCc1ccnc(OC(F)F)c1)C1CCC1 [Example 125, 1-[cyclobutyl(dideuterio)methyl]-3-[[2-(difluoromethoxy)pyridin-4-yl]methyl]urea] |
| 75 | 140 | O=C(NCc1ccnc(OCC(F)(F)F)c1)NC1CCCC1 [Example 43, 1-cyclopentyl-3-[[2-(2,2,2-trifluoroethoxy)pyridin-4-yl]methyl]urea] |
| 42 | 100 | O=C(NCc1ccnc(OC(F)F)c1)N[C@H]1CCCC(F)(F)C1 [Example 140, 1-[(1S)-3,3-difluorocyclohexyl]-3-[[2-(difluoromethoxy)pyridin-4-yl]methyl]urea] |

| Emax [%] | EC50 [nM] | SMILES |
| --- | --- | --- |
| 74 | 4400 | O=C(NCc1ccnc(-n2cccn2)c1)NC1CCCC1 [Example 2, 1-cyclopentyl-3-[(2-pyrazol-1-ylpyridin-4-yl)methyl]urea] |
| 80 | 260 | CC(F)(F)c1cc(CNC(=O)N[C@H]2C[C@@H]3CC[C@H]2C3)ccn1 (racemic) [Example 33, 1-[[2-(1,1-difluoroethyl)pyridin-4-yl]methyl]-3-[rac-(1R,2R,4S)-2-bicyclo[2.2.1]heptanyl]urea] |
| 59 | 80 | O=C(NCc1ccnc(OC(F)F)c1)N[C@@H]1[C@H]2CCC(F)(F)[C@H]21 [Example 170, 1-[(1R,5S,6R)-2,2-difluoro-6-bicyclo[3.1.0]hexanyl]-3-[[2-(difluoromethoxy)pyridin-4-yl]methyl]urea] |
| 43 | 1400 | O=C(NCc1ccnc(OC(F)F)c1)NC1(C23CC(F)(C2)C3)CC1 [Example 177, 1-[[2-(difluoromethoxy)pyridin-4-yl]methyl]-3-[1-(3-fluoro-1-bicyclo[1.1.1]pentanyl)cyclopropyl]urea] |
| 66 | 210 | CC(Oc1cc(CNC(=O)NC23CC(F)(C2)C3)ccn1)C(F)(F)F (stereo not shown) [Example 223, 1-(3-fluoro-1-bicyclo[1.1.1]pentanyl)-3-[[2-(1,1,1-trifluoropropan-2-yloxy)pyridin-4-yl]methyl]urea] |
| 51 | 200 | O=C(NCc1ccnc(OC(F)F)c1)N[C@H]1[C@@H]2CCC(F)(F)[C@@H]21 [Example 174, 1-[(1S,5R,6S)-2,2-difluoro-6-bicyclo[3.1.0]hexanyl]-3-[[2-(difluoromethoxy)pyridin-4-yl]methyl]urea] |
| 70 | 340 | O=C(NCc1ccnc(CC(F)(F)F)c1)N[C@H]1C[C@H](C(F)(F)F)C1 [Example 64, 1-[[2-(2,2,2-trifluoroethyl)pyridin-4-yl]methyl]-3-[(1r,3r)-3-(trifluoromethyl)cyclobutyl]urea] |
| 64 | 460 | O=C(NCc1ccnc(OC(F)F)c1)NCC(O)C12CC(C1)C2 (stereo not shown) [Example 291, 1-[2-(1-bicyclo[1.1.1]pentanyl)-2-hydroxyethyl]-3-[[2-(difluoromethoxy)pyridin-4-yl]methyl]urea] |
| 45 | 340 | O=C(NCc1ccnc(OCC(F)(F)F)n1)N[C@H]1C[C@H](C(F)(F)F)C1 [Example 204, 1-[[2-(2,2,2-trifluoroethoxy)pyrimidin-4-yl]methyl]-3-[(1r,3r)-3-(trifluoromethyl)cyclobutyl]urea] |
| 84 | 380 | O=C(NC(CO)c1ccnc(OCC(F)(F)F)c1)N[C@H]1C[C@H](C(F)(F)F)C1 (stereo partly shown) [Example 185, 1-[2-hydroxy-1-[2-(2,2,2-trifluoroethoxy)pyridin-4-yl]ethyl]-3-[(1r,3r)-3-(trifluoromethyl)cyclobutyl]urea] |
| 57 | 4400 | O=C(NCc1ccnc(OC(F)F)c1)NC1CC1(F)F (stereo not shown) [Example 173, 1-(2,2-difluorocyclopropyl)-3-[[2-(difluoromethoxy)pyridin-4-yl]methyl]urea] |
| 67 | 1140 | O=C(NCc1ccnc(C(F)F)c1)N[C@H]1C[C@@H]2CC[C@H]1C2 (racemic) [Example 35, 1-[[2-(difluoromethyl)pyridin-4-yl]methyl]-3-[rac-(1R,2R,4S)-2-bicyclo[2.2.1]heptanyl]urea] |
| 68 | 250 | O=C(NCc1ccnc(OC(F)F)c1)N[C@@H]1CC[C@H](OC(F)(F)F)C1 [Example 288, 1-[[2-(difluoromethoxy)pyridin-4-yl]methyl]-3-[(1R,3S)-3-(trifluoromethoxy)cyclopentyl]urea] |
| 40 | 540 | O=C(NCc1ccnc(OC2CC(F)(F)C2)c1)NC12CC(F)(C1)C2 [Example 224, 1-[[2-(3,3-difluorocyclobutyl)oxypyridin-4-yl]methyl]-3-(3-fluoro-1-bicyclo[1.1.1]pentanyl)urea] |
| 42 | 340 | O=C(NCc1ccnc(OC(F)F)c1)N[C@H]1[C@@H]2CC(F)(F)C[C@@H]21 [Example 271, 1-[[2-(difluoromethoxy)pyridin-4-yl]methyl]-3-[rac-(1R,5S,6R)-3,3-difluoro-6-bicyclo[3.1.0]hexanyl]urea] |
| 76 | 180 | O=C(NCc1ccnc(OC(F)F)c1)NC1CCC2C(C1)C2(F)F (stereo not shown) [Example 222, 1-(7,7-difluoro-3-bicyclo[4.1.0]heptanyl)-3-[[2-(difluoromethoxy)pyridin-4-yl]methyl]urea] |
| 62 | 180 | O=C(NCc1ccnc(OC(F)F)c1)NC1CCC(F)(F)CC1 [Example 90, 1-(4,4-difluorocyclohexyl)-3-[[2-(difluoromethoxy)pyridin-4-yl]methyl]urea] |
